# Earlier results, collected in patent US8697106B2, “Coating composition” (SurModics, Inc., priority 2006, dated 2014).
# What was measured:
# [1] = system-wide (systemic) concentration
# bacteria = conditions: effective systemic concentration
structure (smiles),measurement,setting,value
NC[C@H]1O[C@H](O[C@H]2[C@H](O)[C@@H](O[C@H]3O[C@H](CO)[C@@H](O)[C@H](N)[C@H]3O)[C@H](N)C[C@@H]2N)[C@H](N)C[C@@H]1O [tobramycin],system-wide toxic concentration,[1],about 400 mcg/ml
same,effective concentration to actively control bacteria,bacteria,≤ 4 µg/mL
